From US7247725B2, “Gamma-aminoamide modulators of chemokine receptor activity” (Merck & Co., Inc., priority 2002, dated 2007)

Molecular target: CCR-2 (Homo sapiens, UniProt P41597)
Assay: relative activity of separated diastereomers (assay not stated)
Conditions: single isomers separated by chiral HPLC (ChiralPak OD); fast vs slow isomer

Chain of CCR-2 (P41597 whole entry): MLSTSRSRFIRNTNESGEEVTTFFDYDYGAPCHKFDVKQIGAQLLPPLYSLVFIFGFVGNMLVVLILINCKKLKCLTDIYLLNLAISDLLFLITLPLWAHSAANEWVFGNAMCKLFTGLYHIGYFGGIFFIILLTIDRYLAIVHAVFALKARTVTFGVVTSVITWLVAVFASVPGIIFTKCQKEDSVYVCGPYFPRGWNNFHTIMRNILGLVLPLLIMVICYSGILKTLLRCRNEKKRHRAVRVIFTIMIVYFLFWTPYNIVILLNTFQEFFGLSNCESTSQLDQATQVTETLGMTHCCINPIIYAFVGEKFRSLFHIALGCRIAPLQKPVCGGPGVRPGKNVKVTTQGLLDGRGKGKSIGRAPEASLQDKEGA

Structure (SMILES): CC(=O)Nc1nc([C@H](CCN2CC[C@@]3(C=Cc4ccccc43)[C@@H](C)C2)C(=O)NCc2cc(C(F)(F)F)cc(C(F)(F)F)c2)cs1 [Example 52h-(S)]
- relative activity of the two diastereomers epimeric α to the amide carbonyl: more active

Structure (SMILES): CC(=O)Nc1nc([C@@H](CCN2CC[C@@]3(C=Cc4ccccc43)[C@@H](C)C2)C(=O)NCc2cc(C(F)(F)F)cc(C(F)(F)F)c2)cs1 [Example 52h-(R)]
- relative activity of the two diastereomers epimeric α to the amide carbonyl: less active
